Patent EP0194571A1, “Heterocyclic disulfides, process for their preparation and pharmaceutical preparations containing them” (HOECHST AKTIENGESELLSCHAFT, priority 1985, dated 1986)

How the values were obtained:
[1] = test system: Maus-Peritonealmakrophagen; assay: Activation of mononuclear phagocytes: release of lysosomal hydrolases (exocytosis) by peritoneal macrophages from treated mice; type: in vivo, NMRI-Mäuse; details: for N-Ac-Glu: N-Acetyl-ß-D-Glucosaminidase in culture supernatant; for ß-Gal: ß-Galactosidase in culture supernatant; for ß-Glu: ß-Glucuronidase in culture supernatant
Description: (§1) Hier wurde der Einfluß der nach Ausführungsbeispiel 8 erhaltenen Prüfsubstanz auf die Stimulation von Peritonealmakrophagen bei 6- 8 Wochen alten NMRI-Mäusen untersucht. Mäuseweibchen erhielten auf parenteralem oder oralem Wege die Prüfsubstanz in einer Dosis von 25 mg/kg, 50 mg/kg, 100 mg/kg und 200 mg/kg. Der Kontrollgruppe wurde gepufferte Kochsalzlösung verabreicht. Drei Tage nach den Injektionen wurden die Mäuse getötet, und es wurden die Peritonealmakrophagen der Tiere auf ihren Aktivierungszustand hin untersucht. Als Maß der Makrophagenaktivierung wurde zum einen die Sekretion der lyosomalen Enzyme (ß-Galactosidase, ß-Glucuronidase, N-Acetyl-ß-D-Glucosaminidase) bestimmt. Auf der anderen Seite konnte in vergleichbaren Makrophagenkulturen die Pinozytose durch die Aufnahme von kolloidalem Gold (^19^8Au) - wie sie dem Fachmann bekannt ist - untersucht werden. Die Höhe des oxidativen Stoffwechsels bei Makrophagen gilt als ein weiteres Maß für ihren Aktivierungszustand. Gemessen wird diese Aktivität unter Zuhilfenahme des Biolumaten durch Bestimmung der Chemolumineszenz.
(§2) Zu diesem Zweck wurden entweder in Petrischalen von 30 mm Durchmesser 3 x 10^6 Makrophagen mit 1 ml TC 199-Kulturmedium oder aber 10^6 Makrophagen mit 100 µl in Rundbogen-Polyäthylen-Röhrchen (zur Bestimmung der Chemolumineszenz) bei 5 % G02 und 37°C kultiviert.
(§3) Nach einstündiger Bebrütung wurden die Kulturen gewaschen, um schwimmende Zellen zu entfernen. Die Chemolumineszenz (Röhrchenkultur) wurde dann direkt bestimmt, während die Petrischalen erneut 24 Stunden bei 37°C bebrütet wurden und danach die Enzym- und Pinozytoseaktivität in den Kulturen bestimmt wurde. Es wurden die nachstehenden Ergebnisse erzielt.
Aus der Tabelle 3 ist zu entnehmen, daß Makrophagen von Kontrollmäusen nur geringe Mengen an lysosomalen Enzymen (ß-Glucuronidase, ß-Galactosidase, N-Acetyl-ß-D-Glucosaminidase) in den Kulturüberstand abgeben. Mononukleare Phagozyten von Mäusen, die parenteral oder oral mit der Prüfsubstanz 72 Stunden behandelt wurde, sezernieren die o.a. sauren Hydrolasen (ß-Glu, ß-Gal, N-Ac-Glu) deutlich mehr und weisen damit eine Dosiswirkungskurve auf, die bei allen gemessenen Enzymen eine Überlegenheit gegenüber den Kontrollen erkennen läßt. Es ist ersichtlich, daß die Prüfsubstanz eine stimulierende Wirkung auf die Makrophagenaktivität besitzt und zur Erhöhung der Enzymfreisetzung beiträgt.
(§4) Wie im Experiment 2 beschrieben, wurden NMRI-Mäuse mit den erfindungsgemäßen Verbindungen behandelt.
(§5) Als Test zur Erfassung der Immunstimulation wurde die Funktion der Makrophagen (Chemolumineszenz und Enzymaktivität) überprüft.
(§6) Tabelle 8 zeigt die relative Wirksamkeit der Prüfsubstanzen bezogen auf die Verbindung aus Beispiel 8, deren maximale Aktivierung (Differenz zwischen Kontrolle und Stimulation) 100 % entspricht. Der Tabelle ist zu entnehmen, daß im Vergleich zu Makrophagen aus unbehandelten Tieren, diese Zellen auch durch alle Prüfsubstanzen in ihrer Chemolumineszenzreaktion stark stimuliert und in ihrem Gehalt an lysosomalen Enzymen deutlich erhöht waren.

B16-Melanom = assay: Tumour defence against B16 melanoma (lung metastases after removal of primary tumour), survival time; type: in vivo, C57B1/6 Mäusen; details: control 26 Tagen
Description: Bei weiblichen C57B1/6 Mäusen (10 Tiere/Gruppe) mit einem Gewicht von 18 - 20 g wurde mit 2 x 10^5 lebenden B16-Melanomzellen ein Primärtumorwachstum induziert. Nach Ausprägung einer bestimmten Tumorgröße (0.65 cm im Durchmesser) wurde der Primärtumor entfernt. Die unbehandelten Tiere starben dann an Metastasen in der Lunge. Nach der Tumorinduktion wurden die Tiere an den Tagen 3, 5, 7, 9, 11, und 13 nach Amputation des Primärtumors mit 50, 100 und 200 mg/kg der nach Beispiel 8 erhaltenen Prüfsubstanz intraperitoneal behandelt. Aus der Absterberate nach Amputation des Primärtumors durch die Entwicklung von Lungenmetastasen lassen sich entsprechend die mittleren ffberlebenszeiten berechnen. Danach sterben die Tiere der Kontrollgruppe zu 50 % nach 26 Tagen. Die mit der Prüfsubstanz behandelten Gruppen zeigten (vgl. Tabelle 10) mit den entsprechenden Dosierungen eine signifikante Erhöhung der mittleren Überlebenszeit auf 43, 40 und 35 Lage.

[2] = test system: Maus-Peritonealmakrophagen; assay: Pinocytosis of colloidal gold (198Au) by peritoneal macrophages from treated mice; type: in vivo, NMRI-Mäuse; details: uptake of colloidal 198Au
Description: as §1, §2, §3
Die quantitative Bestimmung der Pinozytoseaktivität bei mononukleären Phagozyten wurde nach der Methode von Davies et al. durchgeführt (Davies, P. Allison, A.C. und Haswell, A.D.; Biochem. Biophys. Res. Com. 52, 627, 1973). Dazu wurde radioaktives, kolloidales Gold (^198Au) mit einer Partikelgröße von 20 nm und einer spezifischen Aktivität von 4-12 mCl/mg Au benutzt. Die Ergebnisse in Tabelle 4 veranschaulichen den Effekt der nach Beispiel 8 erhaltenen Prüfsubstanz auf die Endozytoseleistung. Die Pinozytose von kolloidalem Gold (^19^8Au) durch Maus-Peritonealmakrophagen von mit der erfindungsgemäßen Verbindung behandelten Tieren ist im Vergleich mit den Makrophagen von unbehandelten Tieren signifikant und dosisabhängig erhöht.

[3] = test system: zelluläre Immunantwort (DTH-Reaktion) gegen Schafserythrozyten; assay: Delayed type hypersensitivity (DTH) reaction against sheep erythrocytes, foot swelling in mice; type: in vivo, NMRI-Mäuse; details: relative to maximal activation by compound of Beispiel 8 = 100 %; Dosis 100 mg/kg, 1 x i.p. Tag 0
[4] = test system: Maus-Peritonealmakrophagen; assay: Activation of mononuclear phagocytes: oxidative metabolism (chemiluminescence) of peritoneal macrophages from treated mice; type: in vivo, NMRI-Mäuse; details: relative to maximal activation by compound of Beispiel 8 = 100 %; 100 mg/kg i.p.
Description: as §1, §2, §3
Die parenterale sowie die orale Behandlung von NMRI-Mäusen mit der gemäß Beispiel 8 hergestellten Prüfsubstanz stimuliert die Makrophagenaktivität und hat damit eine immunitätstimulierende Wirkung. So wird der oxidative Stoffwechsel bei Makrophagen mit der Generierung von Sauerstoffradikalen und dem damit verbundenen meßbaren Licht deutlich erhöht. Bei Dosierungen von 25 mg/kg aufwärts kommt es zu einer dosisabhänigen Steigerung der Makrophagenaktivität sowohl bei parenteraler als auch oraler Applikation.
as §4, §5, §6

With `Cc1nc(SSc2nc(C)c(CC(=O)O)s2)sc1CC(=O)O` [Beispiel 8, Bis-(5-Carboxymethyl-4-methyl-thiazol-2-yl)-disulfid] the N-Ac-Glu ([1]; 1 x 25 mg/kg i.p.) was 2786 mU/ml, the N-Ac-Glu ([1]; 1 x 25 mg/kg p.o.) was 1947 mU/ml and the N-Ac-Glu ([1]; 1 x 50 mg/kg i.p.) was 3315 mU/ml. It also gave a N-Ac-Glu ([1]; 1 x 50 mg/kg p.o.) of 2862 mU/ml, a N-Ac-Glu ([1]; 1 x 100 mg/kg i.p.) of 4305 mU/ml and a N-Ac-Glu ([1]; 1 x 100 mg/kg p.o.) of 3676 mU/ml. The N-Ac-Glu ([1]; 1 x 200 mg/kg i.p.) was 6548 mU/ml, the N-Ac-Glu ([1]; 1 x 200 mg/kg p.o.) was 5621 mU/ml and the “Makrophagenaktivität Exozytose” value ([1]; lysosomal enzyme activity, relative to maximal activation by compound of Beispiel 8 = 100 %, 100 mg/kg i.p.) was 100%. For the same molecule, the ß-Gal ([1]; 1 x 25 mg/kg i.p.) was 2584 mU/ml, the ß-Gal ([1]; 1 x 25 mg/kg p.o.) was 4917 mU/ml and the ß-Gal ([1]; 1 x 50 mg/kg i.p.) was 11058 mU/ml. The ß-Gal ([1]; 1 x 50 mg/kg p.o.) was 9179 mU/ml, the ß-Gal ([1]; 1 x 100 mg/kg i.p.) was 17596 mU/ml and the ß-Gal ([1]; 1 x 100 mg/kg p.o.) was 13195 mU/ml. The ß-Gal ([1]; 1 x 200 mg/kg i.p.) was 22351 mU/ml, the ß-Gal ([1]; 1 x 200 mg/kg p.o.) was 17357 mU/ml and the ß-Glu ([1]; 1 x 25 mg/kg i.p.) was 1001 mU/ml. It also gave a ß-Glu ([1]; 1 x 25 mg/kg p.o.) of 897 mU/ml, a ß-Glu ([1]; 1 x 50 mg/kg i.p.) of 1370 mU/ml and a ß-Glu ([1]; 1 x 50 mg/kg p.o.) of 1133 mU/ml. It also gave a ß-Glu ([1]; 1 x 100 mg/kg i.p.) of 1791 mU/ml, a ß-Glu ([1]; 1 x 100 mg/kg p.o.) of 1593 mU/ml and a ß-Glu ([1]; 1 x 200 mg/kg i.p.) of 2136 mU/ml. The ß-Glu ([1]; 1 x 200 mg/kg p.o.) was 1886 mU/ml, the “mittlere Überlebenszeit” value (B16-Melanom; 50 mg/kg intraperitoneal on days 3, 5, 7, 9, 11, 13 after amputation of primary tumour) was 43 days and the “mittlere Überlebenszeit” value (B16-Melanom; 100 mg/kg intraperitoneal on days 3, 5, 7, 9, 11, 13 after amputation of primary tumour) was 40 days. The “mittlere Überlebenszeit” value (B16-Melanom; 200 mg/kg intraperitoneal on days 3, 5, 7, 9, 11, 13 after amputation of primary tumour) was 35 days, the “Pinozytoseleistung von Mausmakrophagen” value ([2]; 1 x 25 mg/kg intraperitoneal) was 0,341 " " x 10^3 cpm and the “Pinozytoseleistung von Mausmakrophagen” value ([2]; 1 x 25 mg/kg oral) was 0,272 " " x 10^3 cpm. For the same molecule, the “Pinozytoseleistung von Mausmakrophagen” value ([2]; 1 x 50 mg/kg intraperitoneal) was 0,396 " " x 10^3 cpm, the “Pinozytoseleistung von Mausmakrophagen” value ([2]; 1 x 50 mg/kg oral) was 0,358 " " x 10^3 cpm and the “Pinozytoseleistung von Mausmakrophagen” value ([2]; 1 x 100 mg/kg intraperitoneal) was 0,462 " " x 10^3 cpm. The “Pinozytoseleistung von Mausmakrophagen” value ([2]; 1 x 100 mg/kg oral) was 0,416 " " x 10^3 cpm, the “Pinozytoseleistung von Mausmakrophagen” value ([2]; 1 x 200 mg/kg intraperitoneal) was 0,587 " " x 10^3 cpm and the “Pinozytoseleistung von Mausmakrophagen” value ([2]; 1 x 200 mg/kg oral) was 0,506 " " x 10^3 cpm. For the same molecule, the “DTH-Reaktion (SRBC)” value [3] was 100% and the “Makrophagenaktivität Chemolumineszenz” value [4] was 100%.
